Experimental findings from patent US8518956B2, “1-(1-(2-ethoxyethyl)-3-ethyl-7-(4-methylpyridin-2-ylamino)-1H-pyrazolo[4,3-d]pyrimidin-5-yl) piperidine-4-carboxylic acid and salts thereof” (priority 2005, dated 2013) are described below.

Broadly, the IC50 is the concentration needed to halve the response being measured. The low end stands for greater potency in that assay, the high end for weaker potency in that assay.

In this assay the target is T1, PDE5 enzyme (Homo sapiens, UniProt O76074).
T1 construct: The PDE5 enzyme isolated from human platelets; from tissue; host or cells: human platelets
Briefly: Method 1: Human Platelet PDE5 Enzyme Inhibition Scintillation Proximity Assay. Format: biochemical. Conditions: METHOD 1: PDE5 IC50, Table B, WO2004096810 examples. The source says:
Method 1: Human Platelet PDE5 Enzyme Inhibition Scintillation Proximity Assay
An in vitro assay can be used to evaluate the inhibition of PDE5 enzyme activity by a test compound.
The PDE5 enzyme for use in the assay can be obtained from human platelets by appropriate modification of the method of Thompson, W J et al.; Biochemistry 18(23), 5228-5237, 1979, as described by Ballard S A et al.; J. Urology 159(6), 2164-2171, 1998. The PDE5 enzyme isolated from human platelets can be used to catalyze the hydrolysis of [^3H]cGMP (Amersham Biosciences) to 5′ nucleotide [^3H]GMP. The [^3H]GMP binds to yttrium silicate SPA beads (Amersham Biosciences) and is detected by scintillation counting. More specifically, the effect of the test compound at different concentrations can be evaluated in the assay by contacting the compound with a fixed amount of PDE5 enzyme in the presence of substrate (cGMP or cAMP in a 3:1 ratio unlabelled to [^3H]-labeled). Scintillation counting can be used as described above to determine relative PDE5 enzyme activity. The inhibition of PDE5 enzyme activity is then calculated relative to total PDE5 enzyme activity of uninhibited controls.
PDE5 IC50 Assay: 96-well microtiter plate format
• Buffer A: 20 mM Tris-HCl, 5 mM MgCl2, pH 7.4 • Buffer B: 2 mg/ml BSA in Buffer A (enzyme buffer) • cGMP substrate: Final concentration of 500 nM in assay The amount of ^3H-labeled substrate added depends upon the specific activity of [^3H]cGMP, and the cGMP substrate is diluted with a 10 mM stock of cold cGMP in Buffer A for a final substrate concentration of 500 nM in the assay. • PDE enzyme: Prepared in Buffer B. The dilution factor is determined by enzyme activity. • SPA beads: 20 mg/ml suspension prepared in dH2O.
Stocks of standard and test compounds are prepared at 5 mM in 100% DMSO. The compound is serially diluted in a dilution plate using a 10-point ½ log dilution format. 2 μl of the compound dilution is added in duplicate to the wells of the assay plate. 2 μl of 100% DMSO are added to designated control wells. 25 μl of Buffer A are added to all wells. 25 μl of Buffer B are added to the negative control wells. 25 μl of enzyme are added to the remaining wells. 50 μl of substrate are added to each well. Plates are sealed and incubated for 60 minutes on a plate shaker at 30 C. 50 plof SPA beads are added to stop the reaction. The plates are again sealed and shaken for 15 minutes to allow the beads to bind the GMP product. The beads are allowed to settle for 30 minutes and then read on a NXT TopCount scintillation counter. Data are analyzed with a curve fitting application for plate-based screening. Percent inhibition in this assay is calculated as follows: Inhibition (%)=[(mean maximum−compound value/(mean maximum−mean minimum)]×100.
The IC50 value is determined from sigmoid dose-response curves of enzyme activity versus compound concentration.
Compound `CCOCCn1nc(CC)c2nc(N3CC(N)C3)nc(Nc3ccncn3)c21` [WO2004096810 Example 3] gave an IC50 of 43.8 nM.

In turn, `CCCOCCn1nc(C)c2nc(N3CCN[C@H](C)C3)nc(Nc3cc(C)ccn3)c21` [WO2004096810 Example 4] showed an IC50 of 8.84 nM. This IC50 lies about 5-fold lower than the previous one.

`CCCOCCn1nc(C)c2nc(N3CCN[C@H](C)C3)nc(Nc3ccc(C)cn3)c21` [WO2004096810 Example 7] registered an IC50 of 6.03 nM.

Take `COCCn1nc(C(C)C)c2nc(N3CCN[C@H](C)C3)nc(Nc3ccc(C)cn3)c21` [WO2004096810 Example 8]: the IC50 came to 6.95 nM. The IC50 values of the last two compounds are within 1.5-fold of each other.

In turn, `Cc1ccc(Nc2nc(N3CCN[C@H](C)C3)nc3c(C)nn(C(C)C)c23)nc1` [WO2004096810 Example 9] displayed an IC50 of 508 nM.

Regarding `CCOCCn1nc(C)c2nc(N3CCN[C@H](C)C3)nc(Nc3ccncn3)c21` [WO2004096810 Example 11], inhibition was half-maximal at 0.29 nM (IC50).

`CCOCCn1nc(C)c2nc(N3CCN[C@@H](C)C3)nc(Nc3ccncn3)c21` [WO2004096810 Example 12]: it took 1.74 nM to reach half-maximal inhibition (IC50).

Compound `CCOCCn1nc(C)c2nc(N3CCN[C@H](C(C)C)C3)nc(Nc3ccncn3)c21` [WO2004096810 Example 13] registered an IC50 of 19.1 nM.

The compound `CCOCCn1nc(C)c2nc(N3CCN[C@@H](C(C)C)C3)nc(Nc3ccncn3)c21` [WO2004096810 Example 14] came in with an IC50 of 42.1 nM. Compared with the last compound, the IC50 is about 2.2-fold higher.

For `CCOCCn1nc(CC)c2nc(N3CCN[C@H](C)C3)nc(Nc3ccncn3)c21` [WO2004096810 Example 15], the 50% inhibitory concentration (IC50) was 0.09 nM.

Compound `CCOCCn1nc(CC)c2nc(N3CCN[C@@H](C)C3)nc(Nc3ccncn3)c21` [WO2004096810 Example 16] yielded an IC50 of 0.98 nM.

`CCOCCn1nc(CC)c2nc(N3CCN[C@H](C(C)C)C3)nc(Nc3ccncn3)c21` [WO2004096810 Example 17] yielded an IC50 of 22.4 nM. This IC50 lies about 23-fold higher than the previous one.

Consider `CCOCCn1nc(CC)c2nc(N3CCN[C@@H](C(C)C)C3)nc(Nc3ccncn3)c21` [WO2004096810 Example 18], for which half-maximal inhibition (IC50) was put at 25.8 nM.

Take `CCOCCn1nc(CC)c2nc(N3CCN[C@H](CC)C3)nc(Nc3ccncn3)c21` [WO2004096810 Example 19]: the IC50 was 0.49 nM. This IC50 is about 53-fold lower than that of the compound before.

For `CCOCCn1ncc2nc(N3CCN[C@H](C)C3)nc(Nc3ccncn3)c21` [WO2004096810 Example 21], the IC50 turned out to be 2.04 nM.

Take `CCCOCCn1nc(C)c2nc(N3CCN[C@H](C)C3)nc(Nc3ccncn3)c21` [WO2004096810 Example 23]: the IC50 amounted to 0.39 nM.

As for `Cc1nn(C(C)C)c2c(Nc3ccncn3)nc(N3CCN[C@H](C)C3)nc12` [WO2004096810 Example 24], the IC50 came to 37.7 nM.

Regarding `CCOCCn1nc(C)c2nc(N3CCN[C@H](C)C3)nc(Nc3cc(C)ncn3)c21` [WO2004096810 Example 26], inhibition was half-maximal at 1.83 nM (IC50).

`CCOCCn1nc(CC)c2nc(N3CCN[C@H](C)C3)nc(N(C)c3ccncn3)c21` [WO2004096810 Example 28] registered an IC50 of 47.9 nM.

Take `CCCc1nn(C)c2c(Nc3ccc(C)cn3)nc(N3CCNCC3)nc12` [WO2004096810 Example 34]: inhibition was half-maximal at 50.2 nM (IC50).

In turn, `CCCc1nn(C)c2c(Nc3ccc(C)cn3)nc(N3CCC(O)CC3)nc12` [WO2004096810 Example 35] gave an IC50 of 737 nM.

On to `CCCc1nn(C)c2c(Nc3ccc(C)cn3)nc(N3CCCCC3)nc12` [WO2004096810 Example 36], for which the IC50 stood at 1450 nM.

With `CCCc1nn(C)c2c(Nc3ccc(C)cn3)nc(NC3CNC3)nc12` [WO2004096810 Example 37], the IC50 was over 10000 nM.

`CCCc1nn(C)c2c(Nc3ccc(C)cn3)nc(N(C)C3CNC3)nc12` [WO2004096810 Example 38] gave an IC50 of over 10000 nM.

For the compound `CCCc1nn(C)c2c(Nc3cc(C)ccn3)nc(N3CCN[C@@H](C)C3)nc12` [WO2004096810 Example 39], it took 456 nM to reach half-maximal inhibition (IC50).

In turn, `CCCc1nn(C)c2c(Nc3cc(C)ccn3)nc(N3CCN[C@H](C)C3)nc12` [WO2004096810 Example 40] registered an IC50 of 334 nM.

The compound `CCCc1nn(C)c2c(Nc3cc(C)ccn3)nc(NCc3ccc(OC)cc3)nc12` [WO2004096810 Example 71] gave an IC50 of 152 nM.

With `CCCc1nn(C)c2c(Nc3cc(C)ccn3)nc(NCCOC)nc12` [WO2004096810 Example 72], the IC50 is 177 nM.

For `CCCc1nn(C)c2c(Nc3cc(C)ccn3)nc(N)nc12` [WO2004096810 Example 77], the IC50 is over 10000 nM.

As to `CCCc1nn(C)c2c(Nc3ccncn3)nc(N3CCN(C)CC3)nc12` [WO2004096810 Example 80], the IC50 is 1940 nM.

`CCCc1nn(C)c2c(Nc3ccncn3)nc(N3CCN[C@@H](C)C3)nc12` [WO2004096810 Example 81] displayed an IC50 of 118 nM.

`CCCc1nn(C)c2c(Nc3cc(OC)ncn3)nc(N3CCNCC3)nc12` [WO2004096810 Example 83] returned an IC50 of 134 nM.

With `CCCc1nn(C)c2c(Nc3cc(OC)ncn3)nc(NC)nc12` [WO2004096810 Example 84], the IC50 was 247 nM.

`CCCc1nn(C)c2c(Nc3cccnn3)nc(N3CCNCC3)nc12` [WO2004096810 Example 88]: the concentration for half-maximal inhibition (IC50) was over 100 nM.

`CCCc1nn(C)c2c(Nc3ncc[nH]3)nc(NC)nc12` [WO2004096810 Example 90] gave an IC50 of 1550 nM.

Turning to `CCCc1nn(C)c2c(Nc3ccncn3)nc(N3CCN[C@H](C)C3)nc12` [WO2004096810 Example 91], half-maximal inhibition (IC50) was put at 22.6 nM.

`COCCCn1nc(C)c2nc(N(C)CCO)nc(Nc3cc(C)ccn3)c21` [WO2004096810 Example 92] registered an IC50 of 26.5 nM.

Compound `COCCNc1nc(Nc2cc(C)ccn2)c2c(n1)c(C)nn2CCOC` [WO2004096810 Example 93] displayed an IC50 of 31.1 nM. The IC50 values of the last two compounds are within 1.5-fold of each other.

`CCc1nn(CCOC)c2c(Nc3cc(C)ccn3)nc(N3CCC(O)CC3)nc12` [WO2004096810 Example 94]: the half-maximal inhibitory concentration (IC50) came to 43.2 nM.

In turn, `COCCn1nc(C)c2nc(N3CC[C@H](OC)C3)nc(Nc3cc(C)ccn3)c21` [WO2004096810 Example 95] returned an IC50 of 76 nM. This IC50 lies about 1.8-fold higher than the previous one.

With `COCCCn1nc(C)c2nc(NCCO)nc(Nc3cc(C)ccn3)c21` [WO2004096810 Example 96], the IC50 was found to be 87.9 nM.

For `CCc1nn(CCOC)c2c(Nc3cc(C)ccn3)nc(NC[C@@H]3CCCN3)nc12` [WO2004096810 Example 98], the IC50 turned out to be 231 nM.

The compound `CNc1nc(Nc2cc(C)ccn2)c2c(n1)c(C)nn2CCCOC` [WO2004096810 Example 99] registered an IC50 of 239 nM.

Consider `COCCCn1nc(C)c2nc(N3CC[C@@H](O)C3)nc(Nc3cc(C)ccn3)c21` [WO2004096810 Example 100], for which the IC50 is 67.2 nM.

`CCc1nn(CCOC)c2c(Nc3ccc(C)cn3)nc(NCCCO)nc12` [WO2004096810 Example 103] showed an IC50 of 76.6 nM. The IC50 values of the last two compounds are within 1.5-fold of each other.

`CCc1nn(CCOC)c2c(Nc3ccc(C)cn3)nc(N3CCOCC3)nc12` [WO2004096810 Example 108] registered an IC50 of 778 nM.

As to `CCc1nn(CCOC)c2c(Nc3ccccn3)nc(N(C)CCO)nc12` [WO2004096810 Example 109], the IC50 was found to be 27.3 nM.

With `CCc1nn(CCOC)c2c(Nc3ccc(F)cn3)nc(NCCOC)nc12` [WO2004096810 Example 110], the IC50 is 513 nM.

Turning to `CCCc1nn(C)c2c(Nc3ccc(C)cn3)nc(N3CCN(C)CC3)nc12` [WO2004096810 Example 113], the IC50 was 1250 nM.

The compound `COCCCn1nc(C)c2nc(N[C@@H](C)CO)nc(Nc3cc(C)cc(C)n3)c21` [WO2004096810 Example 114] gave an IC50 of 60.6 nM.

Turning to `CCc1nn(CCOC)c2c(Nc3cc(C)n[nH]3)nc(NCCn3cccn3)nc12` [WO2004096810 Example 115], half-maximal inhibition (IC50) required 220 nM.

`COCCCn1nc(C)c2nc(N3CCNCC3)nc(Nc3cc(C)n[nH]3)c21` [WO2004096810 Example 116] came in with an IC50 of 1760 nM.

`CCCc1nn(C)c2c(Nc3ccc(CC)cn3)nc(N3CCNCC3)nc12` [WO2004096810 Example 123]: half-maximal inhibition (IC50) required 248 nM. Against the preceding compound, the IC50 is about 7.1-fold lower.

With `CCCc1nn(C)c2c(NC3CCCCC3)nc(N3CCNCC3)nc12` [WO2004096810 Example 124], half-maximal inhibition (IC50) was put at 78.2 nM.

Turning to `CCCc1nn(C)c2c(Nc3cc(C)cc(C)n3)nc(N3CCNCC3)nc12` [WO2004096810 Example 125], 182 nM corresponded to half-maximal inhibition (IC50).
